Laboratory results from patent US20240114939A1, “HYDROXY- AND METHOXY-SUBSTITUTED FLAVONES AND THEIR USE” (Firmenich SA, priority 2021, published 2024).

Experiments:
panel of 8 experts = test: Expert panel, bitter and astringent taste in coffee; format: in vivo, human; conditions: 10 ppm, scale −5 (strong masking) to 5 (strong enhancing), 0 = reference application in coffee
From the text: A panel consisted in 8 experts evaluating the samples at 10 ppm for taste properties (bitter and astringent) on a scale of −5 to 5 (−5 denoted strong masking effect and 5 denoted strong enhancing effect, 0 being the intensity of a reference application in coffee).

human sensory panel [1] = test: Human sensory panel, sweet taste versus reference water solution containing 4% sucrose; format: in vivo; conditions: 20 trained panelists, scale −5 (strong masking) to 5 (strong enhancing), 0 = reference water solution containing 4% sucrose
From the text: (§1) Certain HMF compounds were tasted by a human sensory panel to assess their ability to reduce bitterness, reduce astringency, and enhance sweetness. The panel consisted of 20 trained panelists evaluating the samples at 1 ppm, 5 ppm, or 10 ppm for taste properties (sweet, bitter, or astringent) on a scale of −5 to 5 (−5 denoted strong masking effect and 5 denoted strong enhancing effect, 0 being the intensity of a reference water solution containing 4% sucrose or 10 ppm mixture of Limonin, Naringin and Nomilin) The results are set forth in Table 2. The composition numberings (“Cpn”) are set forth above in Example 1.

human sensory panel [2] = test: Human sensory panel, bitter and astringent taste versus reference water solution with 10 ppm mixture of Limonin, Naringin and Nomilin; format: in vivo; conditions: 20 trained panelists, scale −5 (strong masking) to 5 (strong enhancing); for Astringency: 0 = reference water solution; for Bitterness: 0 = reference water solution with 10 ppm mixture of Limonin, Naringin and Nomilin
From the text: as §1

Row | Compound | Sweetness (human sensory panel [1]; 10 ppm) | Astringency (human sensory panel [2]; 10 ppm) | Bitterness (human sensory panel [2]; 10 ppm) | also measured
1 | COc1ccc(-c2cc(=O)c3c(OC)c(OC)c(OC)c(OC)c3o2)cc1O [Cpd 109, 3′-hydroxy-5,6,7,8,4′-pentamethoxyflavone] | 0.03 | −1.80 | −3.51 | Astringency (panel of 8 experts): 0.60; Bitterness (panel of 8 experts): −1.80
2 | COc1cc(-c2cc(=O)c3c(OC)c(OC)c(OC)cc3o2)ccc1O [Cpd 101, 4′-hydroxy-5,6,7,3′-tetramethoxyflavone] | 0.58 | −0.92 | −0.92 | –
3 | COc1cc(-c2cc(=O)c3c(OC)c(OC)c(OC)c(OC)c3o2)ccc1O [Cpd 103, 4′-hydroxy-5,6,7,8,3′-pentamethoxyflavone] | 0.17 | −0.67 | −1.17 | –
4 | COc1c(OC)c(OC)c2c(=O)cc(-c3ccc(O)cc3)oc2c1OC [Cpd 106, 4′-hydroxy-5,6,7,8-tetramethoxyflavone] | – | – | – | Sweetness (human sensory panel [1]; 5 ppm): 0.25; Astringency (human sensory panel [2]; 5 ppm): −0.30; Bitterness (human sensory panel [2]; 5 ppm): −2.00
5 | COc1ccc(-c2cc(=O)c3c(OC)c(OC)c(OC)cc3o2)cc1O [Cpd 107, 3′-hydroxy-5,6,7,4′-tetramethoxyflavone] | – | – | – | Sweetness (human sensory panel [1]; 1 ppm): 0.50; Astringency (human sensory panel [2]; 1 ppm): 0.00; Bitterness (human sensory panel [2]; 1 ppm): 0.08
6 | COc1cc2oc(-c3ccc(O)cc3)cc(=O)c2c(OC)c1OC [Cpd 104, 4′-Hydroxy-5,6,7-trimethoxyflavone] | 0.08 | −0.33 | −1.00 | –
